From patent US7705034B2, “Vinylogous acid derivatives” (Hoffmann-La Roche Inc., priority 2006, dated 2010) come the findings set out here.

The target of the test is T1, Chymase purified form human skin mast cells (Homo sapiens, UniProt P23946).
T1 construct: Chymase purified form human skin mast cells was obtained from Calbiochem; purchased Calbiochem (Merck Biosciences, San Diego, Calif., USA); host or cells: human skin mast cells (natural source)
T1 sequence (P23946 22-247): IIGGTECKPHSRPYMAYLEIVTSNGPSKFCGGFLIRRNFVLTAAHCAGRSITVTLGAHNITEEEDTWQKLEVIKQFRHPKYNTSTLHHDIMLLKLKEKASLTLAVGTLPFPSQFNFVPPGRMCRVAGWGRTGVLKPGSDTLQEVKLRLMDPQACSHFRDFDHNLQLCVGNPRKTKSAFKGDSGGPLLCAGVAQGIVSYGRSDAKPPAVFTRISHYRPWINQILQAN
The test is described as follows: chymase peptide substrate assay (AAPF-AMC fluorescence). The class given is biochemical. Particulars: 1 nM chymase, 0.02 mM AAPF-substrate, pH 7.4, room temperature, 30 min pre-incubation. On the procedure: The peptide was synthesized with a purity of 95% from Bachem, Bubendorf, Switzerland). Chymase purified form human skin mast cells was obtained from Calbiochem (Merck Biosciences, San Diego, Calif., USA). The assay buffer was 0.15 M NaCl, 0.05M, Tris HCl, 0.05% CHAPS (3-[(3-Cholamidopropyl)-dimethylammonio]-1-propane sulphonate), 0.1 mg/ml Heparin (Heparin sodium, Sigma, porcine intestinal mucosa), 0.02 mM AAPF-substrate, 1 nM Chymase at pH 7.4. The assay was performed in 96-well plates (Packard Optiplate), with a 0.05 ml volume at room temperature. Chymase activity was indicated by the initial rate of increase in fluorescence at 340/440 nm (excitation/emission) from free 7-amino-4-methylcoumarin released from the substrate. Inhibition of the activity by inhibitory compounds was read after 30 min pre-incubation with the chymase at room temperature in assay buffer without AAPF-substrate. The assay was then started by addition of the indicated concentration of AAPF-substrate.

In general, IC50 refers to the concentration that inhibits the measured activity by half. Low values mean inhibition by little substance, high ones a need for much substance. In turn, `CC(=O)NCc1c(C(C2=C(O)C(C)(c3ccccc3)C2=O)c2ccccc2)[nH]c2cc(C)ccc12` (stereo not shown) [Example 10, N-{2-[(2-Hydroxy-3-methyl-4-oxo-3-phenyl-cyclobut-1-enyl)-phenyl-methyl]-6-methyl-1H-indol-3-ylmethyl}-acetamide] came in with a half-maximal inhibitory concentration (IC50) of 25 nM.
The same measure for `CC(=O)NC(C)(C)Cc1c(C(C2=C(O)C(C)(c3ccccc3)C2=O)c2ccccc2)[nH]c2cc(C)ccc12` (stereo not shown) [Example 3, N-(2-{2-[(2-Hydroxy-3-methyl-4-oxo-3-phenyl-cyclobut-1-enyl)-phenyl-methyl]-6-methyl-1H-indol-3-yl}-1,1-dimethyl-ethyl)-acetamide]: 27 nM.
`Cc1c(C(C2=C(O)C(C)(c3ccccc3)C2=O)c2ccccc2)[nH]c2ccccc12` (stereo not shown) [Example 6, 3-Hydroxy-4-methyl-2-[(3-methyl-1H-indol-2-yl)-phenyl-methyl]-4-phenyl-cyclobut-2-enone] came in with an IC50 of 34 nM.
Turning to `Cc1ccc(C2(C)C(=O)C(C(c3ccccc3)c3[nH]c4cc(C)ccc4c3C)=C2O)cc1` (stereo not shown) [Example 13, 2-[(3,6-Dimethyl-1H-indol-2-yl)-phenyl-methyl]-3-hydroxy-4-methyl-4-p-tolyl-cyclobut-2-enone], half-maximal inhibition (IC50) was put at 8 nM. This IC50 lies about 4.2-fold lower than the previous one.
